One data set concerns K562. In words: MTT assay of anti-tumor activity, K562. In kind it is cell-based. The conditions noted are these: K562 cells. How it is done: (§1) The cells were digested and counted. The cell suspension was prepared in a concentration of 5×10^4 cells/ml. 100 μL of the cell suspension per well was added into 96-well plates (5×10^3 cells per well). The 96-well plates were placed in a 5% CO2 incubator at 37° C. for 24 hours. The drugs were diluted with the complete medium to the desired concentrations. 100 μL of the corresponding drug-containing medium was added into each well. Negative control group, vehicle control group and positive control group were set. The 96-well plates were placed in 5% CO2 incubator at 37° C. for 72 hours. The 96-well plates were subjected to a MTT assay, and measured OD value at λ=490 nm. The measurement procedure comprises adding 20 μL MTT (5 mg/ml) for each well, incubating for 4 hours in an incubator, discarding the medium, dissolving by adding 150 μL DMSO into each well, mixing uniformly by rocking gently for 10 minutes on a shaker, reading OD value of each well in a microplate reader at λ=490 nm. The inhibition rate was calculated, the results were recorded, and the anti-tumor activity was assessed.
In general terms: Tetrazolium dyes change colour on reduction, which living cells bring about.

The test system of a further data set is MCF-7. In words: MTT assay of anti-tumor activity, MCF-7. In kind it is cell-based. The conditions noted are these: Homo sapiens, MCF7, 72 h, MCF-7 cells. As for the experimental part: as §1
For the next data set, the system named is HCT-116. The data set is described as follows: MTT assay of anti-tumor activity, HCT-116. In kind it is cell-based. The conditions noted are these: Homo sapiens, HCT-116, 72 h, HCT-116 cells. As for the experimental part: as §1
The test system of the next data set is NCI-H460. In words: MTT assay of anti-tumor activity, NCI-H460. In kind it is cell-based. The conditions noted are these: NCI-H460 cells. As for the experimental part: as §1
The test system of another data set is DU-145. The data set is described as follows: MTT assay of anti-tumor activity, DU-145. In kind it is cell-based. The conditions noted are these: Homo sapiens, DU-145, 72 h, DU-145 cells. How it is done: as §1

In general, melting point refers to the temperature of the solid-liquid transition. As to `COc1ccc(-c2[nH]cnc2-c2cc(OC)c(O)c(OC)c2)cc1F` [CN12, 4-(3,5-dimethoxy-4-hydroxyphenyl)-5-(3-fluoro-4-methoxyphenyl) imidazole], the melting point fell in the range of 124.7 to 127 °C.
Same read-out and setting: in the case of `COc1ccc(-c2ocnc2-c2cc(OC)c(Br)c(OC)c2)cc1N` [CN04, 4-(3,5-dimethoxy-4-bromophenyl)-5-(3-amino-4-methoxyphenyl)oxazole] it was 179.8 to 183.9 °C; in that of `COc1ccc(-c2[nH]cnc2-c2cc(OC)c(O)c(OC)c2)cc1O` [CN15, 4-(3,5-dimethoxy-4-hydroxyphenyl)-5-(3-hydroxy-4-methoxyphenyl)imidazole], 171.5 to 173 °C; in that of `COc1ccc(-c2ocnc2-c2cc(OC)c(O)c(OC)c2)cc1O` [CN06, 4-(3,5-dimethoxy-4-hydroxyphenyl)-5-(3-hydroxy-4-methoxyphenyl)oxazole], 144.3 to 145.5 °C.
`COc1ccc(-c2[nH]cnc2-c2cc(OC)c(N)c(OC)c2)cc1F` [CN10, 4-(3,5-dimethoxy-4-aminophenyl)-5-(3-fluoro-4-methoxyphenyl) imidazole]: the melting point was 100.8 to 102.6 °C.
`COc1cc(OC)cc(-c2ncoc2-c2cc(N)c(OC)cc2N)c1` [Compound C119, 4-(3,5-dimethoxyphenyl)-5-(2,5-diamino-4-methoxyphenyl)oxazole] returned a melting point of 149.9 to 151.6 °C.
Same read-out and setting: in the case of `COc1cc(OC)cc(-c2ncoc2-c2ccc(NC(C)=O)cc2)c1` [Compound C109, 5-(4-acetamidophenyl)-4-(3,5-dimethoxyphenyl)oxazole] it was 140.1 to 143.2 °C; in that of `COc1ccc(-c2[nH]cnc2-c2cc(OC)c(N)c(OC)c2)cc1N` [CN19, 4-(3,5-dimethoxy-4-aminophenyl)-5-(3-amino-4-methoxyphenyl) imidazole], 139.7 to 142.1 °C; in that of `COc1ccc(-c2[nH]cnc2-c2cc(OC)c([N+](=O)[O-])c(OC)c2)cc1O` [CN16, 4-(3,5-dimethoxy-4-nitrophenyl)-5-(3-hydroxy-4-methoxyphenyl)imidazole], 147.7 to 149 °C.
The same measure, in the same setting: as for `COc1cc(OC)cc(-c2ncoc2-c2ccc(N)cc2)c1` [Compound C112, 4-(3,5-dimethoxyphenyl)-5-(4-aminophenyl)oxazole], the figure is 142 to 146 °C; as for `COc1cc(OC)cc(-c2ncoc2-c2ccc(N(C)C)c(N)c2)c1` [Compound C113, 4-(3,5-dimethoxyphenyl)-5-(3-amino-4-dimethylaminophenyl)oxazole], 111.7 to 113.5 °C.
As usually defined, the IC50 is the concentration that inhibits the measured activity by half. Turning to `COc1cc(OC)cc(-c2nc[nH]c2-c2ccc(OC(F)(F)F)c(N)c2)c1` [Compound C152, 4-(3,5-dimethoxyphenyl)-5-(3-amino-4-trifluoromethoxyphenyl)imidazole], the IC50 with K562 (Homo sapiens, K562, 72 h) is 6.8 nM; in the data set on MCF-7, 10.2 nM; in the data set on HCT-116 it was 34 nM; in the data set with NCI-H460 (Homo sapiens, NCI-H460, 72 h) it was over 300 nM.
The molecule `COc1ccc(-c2[nH]cnc2-c2cc(OC)c(O)c(OC)c2)cc1N` [CN14, 4-(3,5-dimethoxy-4-hydroxyphenyl)-5-(3-amino-4-methoxyphenyl)imidazole] had a melting point of 148.5 to 149.9 °C.
Same read-out and setting: in the case of `COc1cc(OC)cc(-c2ncoc2-c2ccc3c(c2)NCCO3)c1` [Compound C255, 4-(3,5-dimethoxyphenyl)-5-(6-benzomorpholinyl)oxazole] it was 175 to 178 °C; in that of `COc1ccc(-c2ocnc2-c2cc(OC)c([N+](=O)[O-])c(OC)c2)cc1O` [CN07, 4-(3,5-dimethoxy-4-nitrophenyl)-5-(3-hydroxy-4-methoxyphenyl)oxazole], 186.2 to 188.4 °C.
As to `COc1cc(OC)cc(-c2nc[nH]c2-c2ccc(N(C)C)cc2)c1` [Compound C130, 4-(3,5-dimethoxyphenyl)-5-(4-dimethylaminophenyl)imidazole], the IC50 was 23 nM with K562 (Homo sapiens, K562, 72 h); 21.3 nM in the data set on K562 (72 hours); 25 nM with HCT-116; 350 nM in the data set on NCI-H460 (Homo sapiens, NCI-H460, 72 h); over 300 nM in the data set with NCI-H460 (72 hours).
The molecule `COc1ccc(-c2ocnc2-c2cc(OC)c(OC(F)(F)F)c(OC)c2)cc1N` [CN23, 4-(3,5-dimethoxy-4-trifluoromethoxyphenyl)-5-(3-amino-4-methoxyphenyl)oxazole] registered a melting point of 167.9 to 170.2 °C.
`COc1ccc(-c2ocnc2-c2cc(OC)c(Cl)c(OC)c2)cc1N` [CN21, 4-(3,5-dimethoxy-4-chlorophenyl)-5-(3-amino-4-methoxyphenyl)oxazole] registered a melting point of 146.2 to 148.1 °C.
`COc1ccc(-c2c(-c3cc(OC)c(OC)c(OC)c3)ncn2-c2cc(OC)c(OC)c(OC)c2)cc1O` [Compound C105, 5-(3-hydroxy-4-methoxyphenyl)-4-(3,4,5-trimethoxyphenyl)-1-(3,4,5-trimethoxyphenyl)imidazole]: the half-maximal inhibitory concentration (IC50) worked out at 8.9 nM with K562 (Homo sapiens, K562, 72 h); 21 nM in the data set with MCF-7; 151 nM with HCT-116; 21 nM with NCI-H460 (Homo sapiens, NCI-H460, 72 h).
For `COc1cc(OC)cc(-c2nc[nH]c2-c2ccc(OC)c(O)c2)c1.O=P([O-])([O-])O.[Na+].[Na+]`, the melting point was 169.7 to 172.1 °C.
Same read-out and setting: as for `COc1ccc(-c2ocnc2-c2cc(OC)c(F)c(OC)c2)cc1N` [CN20, 4-(3,5-dimethoxy-4-fluorophenyl)-5-(3-amino-4-methoxyphenyl)oxazole], the figure is 139.7 to 142.1 °C; as for `COc1ccc(-c2ocnc2-c2cc(OC)c(N)c(OC)c2)cc1F` [CN01, 4-(3,5-dimethoxy-4-aminophenyl)-5-(3-fluoro-4-methoxyphenyl)oxazole], 100.8 to 102.6 °C; as for `COc1ccc(-c2ocnc2-c2cc(OC)c(N)c(OC)c2)cc1O` [CN08, 4-(3,5-dimethoxy-4-aminophenyl)-5-(3-hydroxy-4-methoxyphenyl)oxazole], 126 to 129.6 °C.
On the same count and under the same terms, in the case of `COc1ccc(-c2ocnc2-c2cc(OC)c(O)c(OC)c2)cc1N` [CN05, 4-(3,5-dimethoxy-4-hydroxyphenyl)-5-(3-amino-4-methoxyphenyl)oxazole] it was 101.2 to 102 °C; in that of `COc1ccc(-c2[nH]cnc2-c2cc(OC)c(N)c(OC)c2)cc1O` [CN17, 4-(3,5-dimethoxy-4-aminophenyl)-5-(3-hydroxy-4-methoxyphenyl) imidazole], 141.8 to 143.7 °C.
Still for that read-out and setting: in the case of `COc1cc(OC)cc(-c2ncn(-c3cc(OC)c(OC)c(OC)c3)c2-c2ccc(OC)c(F)c2)c1` [Compound C091, 5-(3-fluoro-4-methoxyphenyl)-4-(3,5-dimethoxyphenyl)-1-(3,4,5-trimethoxyphenyl)imidazole] it was 157 to 158.4 °C; in that of `COc1ccc(-c2[nH]cnc2-c2cc(OC)c(Br)c(OC)c2)cc1O` [CN11, 4-(3,5-dimethoxy-4-bromophenyl)-5-(3-hydroxy-4-methoxyphenyl) imidazole], 184.7 to 187 °C.
In turn, `COc1ccc(-c2ncn(-c3cc(OC)c(OC)c(OC)c3)c2-c2cc(OC)c(OC)c(OC)c2)cc1OC` [Compound C104, 5-(3,4,5-trimethoxyphenyl)-4-(3,4-dimethoxyphenyl)-1-(3,4,5-trimethoxyphenyl)imidazole] returned a melting point of 159.5 to 161 °C.
Molecule `COc1ccc(-c2ocnc2-c2cc(OC)c(Br)c(OC)c2)cc1O` [CN02, 4-(3,5-dimethoxy-4-bromophenyl)-5-(3-hydroxy-4-methoxyphenyl)oxazole] gave a melting point of 184.7 to 187 °C.
On the same count and under the same terms, in the case of `COc1cc(-c2ncn(-c3ccc(C(F)(F)F)cc3)c2-c2ccc(N(C)C)cc2)cc(OC)c1OC` [Compound C092, 5-(4-dimethylaminophenyl)-4-(3,4,5-trimethoxyphenyl)-1-(4-trifluoromethylphenyl)imidazole] it was 215 to 217 °C.
Same read-out and setting: in the case of `COc1cc(-c2ncn(-c3cc(OC)c(OC)c(OC)c3)c2-c2cc(OC)c(OC)c(OC)c2)cc(OC)c1OC` [Compound C107, 5-(3,4,5-trimethoxyphenyl)-4-(3,4,5-trimethoxyphenyl)-1-(3,4,5-trimethoxyphenyl)imidazole] it was 168.8 to 170.9 °C; in that of `COc1ccc(-c2ocnc2-c2cc(OC)c(O)c(OC)c2)cc1F` [CN03, 4-(3,5-dimethoxy-4-hydroxyphenyl)-5-(3-fluoro-4-methoxyphenyl)oxazole], 161.3 to 162.8 °C; in that of `COc1ccc(-c2[nH]cnc2-c2cc(OC)c(Br)c(OC)c2)cc1N` [CN13, 4-(3,5-dimethoxy-4-bromophenyl)-5-(3-amino-4-methoxyphenyl)imidazole], 159.7 to 162 °C.
Take `COc1cc(OC)cc(-c2nc[nH]c2-c2ccc(OC)c(N)c2O)c1` [Compound C146, 4-(3,5-dimethoxyphenyl)-5-(2-hydroxy-3-amino-4-methoxyphenyl)imidazole]: the IC50 in the data set with K562 (Homo sapiens, K562, 72 h) was 6.1 nM; in the data set on MCF-7, 9.3 nM; in the data set with HCT-116, 289 nM; in the data set with DU-145, over 300 nM.

(Values after patent publication US9139574B2, “Tumor targeted drug combretastatin A4 derivative” (Nanjing Sanhome Pharmaceutical Co., Ltd., priority 2011, dated 2015).)
